Columns and labels:
[1] = test system: Desulfovibrio vulgaris Hildenborough (DvH); assay: Carbon steel coupon weight loss analysis in DvH cultures; format: cell-based
Method: (§1) Carbon steel coupons were incubated in the presence of 0 and 2 mM indole, with and without an inoculum of DvH.
(§2) The metal loss of the carbon steel coupons was measured. FIG. 1 is a bar graph comparing corrosion as measured in coupon weight loss under the compound (indole) and SRB (DvH) tested.
(§3) Steel coupons were incubated in cultures of DvH for three days with and without indole and then the coupons were measured to determine the amount of metal loss due to corrosion. […] The error bars represent the standard error of the mean from 2 replicates.
The wild-type D. vulgaris Hildenborough (DvH) was obtained from Judy Wall at the University of Missouri and Adam Deutchbauer at the Lawrence Berkeley National Laboratory. Freezer stocks of DvH containing 10% glycerol were used to inoculate overnight cultures. The growth media (L30S30B2) contained 30 mM lactate, 30 mM sulfate, 8 mM MgCl2, 20 mM NH4Cl, 2.2 mM phosphate buffer, 0.6 mM CaCl2, 24 mM NaCO3, 0.02% resazurin, 0.06 mM FeCl2, trace elements and Thauer's vitamins (Lee et al., “Indole as an intercellular signal in microbial communities,” 2010, pp. 426-444) with pH adjusted to 7.2. Media was bubbled with 15% CO2 balance N2 and sodium dithionite was added immediately before inoculation to a final concentration of […]. Media containing 0-4 mM indole was made by anaerobically mixing varied volumes of L30S30B2 and L30S30B2 supplemented with 4 mM indole (Sigma-Aldrich, 13408).
(§4) Rectangular X52 carbon steel coupons were polished on 600 grit sand paper and weighed prior to the experiment. 60 ml of L30S30B2 media containing 0-2 mM indole was anaerobically transferred into each autoclaved serum bottle with 1 coupon hung on plastic fishing wire. 1 ml of a DvH overnight culture was inoculated into each bottle and incubated at 30° C. with gentle shaking for 3 days. After the incubation the coupons were descaled with Clarke's solution (tin choloride and antimony oxide in concentrated hydrochloric acid), rinsed with water, dried under nitrogen gas, and weighed again. The metal weight loss after exposure to DvH was then calculated.

[2] = Carbon steel coupon weight loss in a sterile environment without DvH inoculation; details: 2 mM indole, carbon steel coupons, FIG. 1
Method: as §1, §2, §4

[3] = test system: Desulfovibrio vulgaris Hildenborough (DvH); assay: DvH metabolism by ion chromatography (lactate, sulfate, acetate); format: cell-based; details: 0.5-2 mM indole, FIG. 2B, 2 replicates
Method: as §3
The wild-type D. vulgaris Hildenborough (DvH) was obtained from Judy Wall at the University of Missouri and Adam Deutchbauer at the Lawrence Berkeley National Laboratory. Freezer stocks of DvH containing 10% glycerol were used to inoculate overnight cultures. The growth media (L30S30B2) contained 30 mM lactate, 30 mM sulfate, 8 mM MgCl2, 20 mM NH4Cl, 2.2 mM phosphate buffer, 0.6 mM CaCl2, 24 mM NaCO3, 0.02% resazurin, 0.06 mM FeCl2, trace elements and Thauer's vitamins (Lee et al., “Indole as an intercellular signal in microbial communities,” 2010, pp. 426-444) with pH adjusted to 7.2. […]
Ion Chromatography (IC)—One milliliter of cultures were extracted at the beginning and the end of the experiment, centrifuged at 14000 rpm for 2 min, filtered through 0.2 μm cellulose acetate filters, and kept at −20° C. until further IC analysis. Anions of lactate, sulfate, and acetate were quantified using suppressed conductivity on a Dionex ICS-5000 Reagent-Free HPIC System with a Dionex IonPac AS 11-HC column (0.4 mm×250 mm, Thermo Fisher, Massachusetts, USA). […]

For c1ccc2[nH]ccc2c1 [indole], the “reduction of corrosion (coupon weight loss) compared to the no indole treatment” value ([1]; 2 mM indole, carbon steel coupons, in the presence of DvH (MIC), FIG. 1) was 2 fold, the “metal loss of coupons incubated in the absence of indole relative to coupons in the presence of indole” value ([1]; 0.5-2 mM indole, steel coupons in DvH cultures, three days, FIG. 2A) was ~2 fold and the “corrosion of metal coupons” value ([1]; 0.5 to 2 mM indole, DvH cultures, three days) was “little to no corrosion”. The “reduction in coupon weight loss in sterile environment” value [2] was “not replicated” and the “metabolism of DvH (consumption of lactate and sulfate, production of acetate)” value [3] was “not significantly affected”.

— patent publication US20160360749A1, “METHOD FOR […] […]” (ExxonMobil Research and Engineering Company, priority 2015, published 2016)
